According to ChEMBL document CHEMBL5154930, “Design, Synthesis, and Biological Evaluations of DOT1L Peptide Mimetics Targeting the Protein-Protein Interactions between DOT1L and MLL-AF9/MLL-ENL” (J Med Chem, 2022):
Non-standard residues stand in square brackets, D forms with d. Residues, ends and D or L forms follow the SMILES beside them. *: point of attachment. X6 = c1ccc(C[C@H](N*)c2nc3cccc(-c4ccccc4)c3[nH]2)cc1; X7 = CC[C@H](C)[C@H](N*)c1nc2cccc(-c3ccccc3)c2[nH]1; X3 = CC(C)C[C@H](N*)c1nc2cccc(-c3ccccc3)c2[nH]1; X5 = c1ccc(-c2cccc3nc([C@@H]4CCCN4*)[nH]c23)cc1; X4 = CC(C)[C@H](N*)c1nc2cccc(-c3ccccc3)c2[nH]1; X1 = C[C@H](N*)c1nc2cccc(-c3ccccc3)c2[nH]1; Ala(cPent) = N[C@@H](CC1CCCC1)C(=O)O; Pentanoyl(4-Me) = CC(C)CCC(=O)*; Dap(Me) = CNC[C@H](N)C(=O)O; Dap = NC[C@H](N)C(=O)O; Bz = O=C(c1ccccc1)*

Legend:
[1] = Apparent permeability across apical to basolateral side in human Caco-2 cells; assay type: ADME, cell-based
[2] = Stability in human plasma assessed as compound remaining measured upto 1440 mins by HPLC analysis; assay type: ADME, cell-free; conditions: read-out: Stability
Protein AF-9 = target: T1, Protein AF-9 (Homo sapiens, UniProt P42568); experiment: Binding affinity to MBP-tagged human recombinant AF9 (487 to 568 residues) incubated for 40 mins by measuring fluorescence polarization by microplate reader method
T1 sequence (P42568 whole entry): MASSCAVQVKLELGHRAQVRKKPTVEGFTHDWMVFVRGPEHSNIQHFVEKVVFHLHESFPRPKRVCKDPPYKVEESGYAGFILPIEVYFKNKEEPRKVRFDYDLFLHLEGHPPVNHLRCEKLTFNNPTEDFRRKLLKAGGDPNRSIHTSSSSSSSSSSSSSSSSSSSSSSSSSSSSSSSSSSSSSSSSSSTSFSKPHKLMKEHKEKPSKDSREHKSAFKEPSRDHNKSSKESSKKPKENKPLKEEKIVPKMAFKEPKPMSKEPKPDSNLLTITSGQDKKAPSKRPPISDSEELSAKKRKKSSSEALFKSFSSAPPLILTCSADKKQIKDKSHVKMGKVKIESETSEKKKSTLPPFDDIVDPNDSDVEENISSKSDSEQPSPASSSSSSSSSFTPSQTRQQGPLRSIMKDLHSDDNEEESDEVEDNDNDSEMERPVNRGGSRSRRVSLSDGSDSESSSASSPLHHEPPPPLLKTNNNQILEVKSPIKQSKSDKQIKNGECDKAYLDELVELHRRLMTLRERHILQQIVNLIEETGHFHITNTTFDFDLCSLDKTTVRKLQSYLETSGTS

MOLM-13 [3] = experiment: cells; conditions: Homo sapiens, MOLM-13, 192 h
Description: Anticancer activity against human MOLM-13 cells harbouring MLL-AF9 assessed as inhibition of cell growth treated for 8 days measured by CCK-8 kit method

KOPN-8 = experiment: cells; conditions: Homo sapiens, KOPN-8, 192 h
Description: Anticancer activity against human KOPN-8 cells harbouring MLL-ENL assessed as inhibition of cell growth treated for 8 days measured by CCK-8 kit method

RS4-11 = experiment: Anticancer activity against human RS4-11 cells assessed as inhibition of cell growth treated for 8 days measured by CCK-8 kit method; assay type: functional, cell-based; conditions: RS4-11, 192 h
MV4-11 = experiment: Anticancer activity against human MV4-11 cells assessed as inhibition of cell growth treated for 8 days measured by CCK-8 kit method; assay type: functional, cell-based; conditions: MV4-11, 192 h
K562 = experiment: Anticancer activity against human K562 cells assessed as inhibition of cell growth treated for 8 days measured by CCK-8 kit method; assay type: functional, cell-based; conditions: K562, 192 h
MOLM-13 [4] = experiment: cells; conditions: Homo sapiens, MOLM-13, 96 h
Description: Anticancer activity against human MOLM-13 cells harbouring MLL-AF9 assessed as inhibition of cell growth treated for 4 days measured by CCK-8 kit method

MOLM-13 [5] = experiment: cells; conditions: Homo sapiens, MOLM-13, 120 h
Description: Anticancer activity against human MOLM-13 cells harbouring MLL-AF9 assessed as inhibition of cell growth treated for 5 days measured by CCK-8 kit method

MOLM-13 [6] = experiment: cells; conditions: Homo sapiens, MOLM-13, 144 h
Description: Anticancer activity against human MOLM-13 cells harbouring MLL-AF9 assessed as inhibition of cell growth treated for 6 days measured by CCK-8 kit method

MOLM-13 [7] = experiment: cells; conditions: Homo sapiens, MOLM-13, 168 h
Description: Anticancer activity against human MOLM-13 cells harbouring MLL-AF9 assessed as inhibition of cell growth treated for 7 days measured by CCK-8 kit method

MOLM-13 [8] = experiment: cells; conditions: Homo sapiens, MOLM-13, 216 h
Description: Anticancer activity against human MOLM-13 cells harbouring MLL-AF9 assessed as inhibition of cell growth treated for 9 days measured by CCK-8 kit method

Compound	Ki (Protein AF-9) [nM]	IC50 (MOLM-13 [3]) [nM]	IC50 (KOPN-8) [nM]	further results
CC(C)(C)NCC(O)COc1cccc2c1CC(O)C(O)C2 (stereo not drawn) [NADOLOL]				Papp A→B [1]: 0.13 ×10⁻⁶ cm/s; remaining at 24 h [2]: 97.1%
CC(=O)N[C@@H](CC(C)C)C(=O)N1CCC[C@H]1C(=O)N[C@H](C(=O)N[C@@H](CN)C(=O)N[C@@H](CC1CCCC1)C(=O)N[C@H](c1nc2cccc(-c3ccccc3)c2[nH]1)C(C)C)C(C)C (Ac-LPV[Dap][Ala(cPent)]-X4)	29	640	750	
CC[C@H](C)[C@H](NC(=O)[C@H](CC1CCCC1)NC(=O)[C@H](CN)NC(=O)[C@@H](NC(=O)[C@@H]1CCCN1C(=O)[C@H](CC(C)C)NC(C)=O)C(C)C)c1nc2cccc(-c3ccccc3)c2[nH]1 (Ac-LPV[Dap][Ala(cPent)]-X7)	23	610	480	
CNC[C@H](NC(=O)[C@@H](NC(=O)[C@@H]1CCCN1C(=O)c1ccccc1)C(C)C)C(=O)N[C@@H](CC1CCCC1)C(=O)N[C@@H](C)c1nc2cccc(-c3ccccc3)c2[nH]1 (Bz-PV[Dap(Me)][Ala(cPent)]-X1)	32	740	670	
CC(=O)N[C@@H](CC(C)C)C(=O)N1CCC[C@H]1C(=O)N[C@H](C(=O)N[C@@H](CN)C(=O)N[C@@H](CC1CCCC1)C(=O)N[C@@H](C)c1nc2cccc(-c3ccccc3)c2[nH]1)C(C)C (Ac-LPV[Dap][Ala(cPent)]-X1)	17	460	440	
CC(C)CCC(=O)N1CCC[C@H]1C(=O)N[C@H](C(=O)N[C@@H](CN)C(=O)N[C@@H](CC1CCCC1)C(=O)N[C@@H](C)c1nc2cccc(-c3ccccc3)c2[nH]1)C(C)C ({Pentanoyl(4-Me)}-PV[Dap][Ala(cPent)]-X1)	9	150	190	IC50 (RS4-11): 380 nM; IC50 (MV4-11): 140 nM; IC50 (K562): 33000 nM; Papp A→B [1]: 1.82 ×10⁻⁶ cm/s; remaining at 24 h [2]: 83%; IC50 (MOLM-13 [4]): 1290 nM; IC50 (MOLM-13 [5]): 932 nM; IC50 (MOLM-13 [6]): 589 nM; IC50 (MOLM-13 [7]): 257 nM; IC50 (MOLM-13 [8]): 94 nM
CC(=O)N[C@@H](CC(C)C)C(=O)N1CCC[C@H]1C(=O)N[C@H](C(=O)N[C@@H](CN)C(=O)N[C@@H](CC1CCCC1)C(=O)N[C@@H](Cc1ccccc1)c1nc2cccc(-c3ccccc3)c2[nH]1)C(C)C (Ac-LPV[Dap][Ala(cPent)]-X6)	13	440	410	
CC[C@H](C)[C@H](NC(=O)[C@H](CO)NC(=O)[C@@H](NC(=O)[C@@H]1CCCN1C(=O)[C@H](CC(C)C)NC(C)=O)C(C)C)C(=O)N1CCC[C@H]1C(=O)N[C@@H](CC(C)C)C(=O)N(C)C (HELM PEPTIDE1{[ac].L.P.V.S.I.P.L.[CN(C)[*:1]]}$$$$V2.0)	160			
CC[C@@H](C)[C@H](NC(=O)[C@@H]1CCCN1C(=O)[C@H](CC(C)C)NC(C)=O)C(=O)N[C@@H](CO)C(=O)N[C@H](C(=O)N1CCC[C@H]1C(=O)N[C@@H](CC(C)C)C(=O)N(C)C)[C@@H](C)CC	160			
CC(=O)N[C@@H](CC(C)C)C(=O)N1CCC[C@H]1C(=O)N[C@H](C(=O)N[C@@H](CN)C(=O)N[C@@H](CC1CCCC1)C(=O)N1CCC[C@H]1c1nc2cccc(-c3ccccc3)c2[nH]1)C(C)C (Ac-LPV[Dap][Ala(cPent)]-X5)	22	500	680	
CC(C)NCC(O)COc1cccc2ccccc12 (stereo not drawn) [PROPRANOLOL]				Papp A→B [1]: 18.5 ×10⁻⁶ cm/s; remaining at 24 h [2]: 72.9%
CC(C)[C@H](NC(=O)[C@@H]1CCCN1C(=O)c1ccccc1)C(=O)N[C@@H](CN)C(=O)N[C@@H](CC1CCCC1)C(=O)N[C@@H](C)c1nc2cccc(-c3ccccc3)c2[nH]1 (Bz-PV[Dap][Ala(cPent)]-X1)	15	310	330	
CC(=O)N[C@@H](CC(C)C)C(=O)N1CCC[C@H]1C(=O)N[C@H](C(=O)N[C@@H](CN)C(=O)N[C@@H](CC1CCCC1)C(=O)N[C@@H](CC(C)C)c1nc2cccc(-c3ccccc3)c2[nH]1)C(C)C (Ac-LPV[Dap][Ala(cPent)]-X3)	19	490	430	
